Measured values from patent publication US9770026B2, “Substituted pyrimidine compound and uses thereof” (Shenyang Sinochem Agrochemicals R&D Co., Ltd., priority 2012, dated 2017).

Tests used:
cucumber downy mildew = assay: protectant activity in vivo against cucumber downy mildew; conditions: for control effect against cucumber downy mildew (%): protectant activity
corn rust = assay: protectant activity in vivo against corn rust; conditions: for control effect against corn rust (%): protectant activity
armyworm = assay: bioactivity test against armyworm, airbrush spray; type: in vivo; conditions: for control (test results against armyworm): mortality after 72 h
carmine spider mite = assay: bioactivity test against carmine spider mite, airbrush spray; type: in vivo; conditions: for control against carmine spider mite: mortality after 72 hrs
How it was run: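 Broadbean seedlings infested with adult mites were sprayed with compound (acetone/methanol stock diluted in 0.1% Tween 80 water) by airbrush at 0.7 kg/cm^2, 0.5 ml. Three replicates were run. Mortality was scored after 72 hrs.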

Diamond back moth = assay: insecticidal activity against diamond back moth, airbrush spray; type: in vivo; conditions: for control (test results against diamond back moth): mortality after 72 hrs
How it was run: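 Airbrush leaf-disc spray test: both faces of 2 cm cabbage discs received 0.5 ml of test solution at 0.7 kg/cm^2. Solutions were made in acetone:methanol (1:1) and brought to concentration with 0.1% Tween 80 in water. Ten second-instar larvae per disc, triplicates, were held at 25° C and 60˜70% R.H., with mortality recorded at 72 hrs.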

wheat powdery mildew = assay: protectant activity in vivo against wheat powdery mildew; conditions: for control effect against wheat powdery mildew (%): protectant activity
[1] = test system: Green peach aphids (Myzus Persicae Sulzer); assay: bioactivity test against green peach aphid, airbrush foliar spray; type: in vivo; conditions: for Insecticidal activity against peach aphid (%): contrastive test; for control (test results against green peach aphid): death rate after 48 hrs
How it was run: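 Aphids (15-30 per cabbage leaf disc) on moist filter paper were airbrush-sprayed at 10 psi, 0.5 mL, with compound from acetone:methanol (1:1) diluted in water with 0.1% tween 80. Held at 25±1 C, 60±5% RH; survivors counted after 48 hrs to give death rates.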

SMILES: CCc1ncnc(NCCc2ccc(Oc3ccc(C#N)cc3F)cc2)c1Cl [II-482]
- protectant activity against cucumber downy mildew in vivo (cucumber downy mildew; 25 ppm): 100%
- protectant activity against cucumber downy mildew in vivo (cucumber downy mildew; 50 ppm): 100%
- protectant activity against cucumber downy mildew in vivo (cucumber downy mildew; 100 ppm): 100%
- protectant activity against cucumber downy mildew in vivo (cucumber downy mildew; 400 ppm): 100%
- control effect against corn rust (%) (corn rust; 6.25 mg/L): 100%
- control effect against corn rust (%) (corn rust; 25 mg/L): 100%
- control effect against corn rust (%) (corn rust; 100 mg/L): 100%
- control effect against corn rust (%) (corn rust; 400 mg/L): 100%
- protectant activity against corn rust in vivo (corn rust; 6.25 ppm): 100%
- protectant activity against corn rust in vivo (corn rust; 25 ppm): 100%
- protectant activity against corn rust in vivo (corn rust; 100 ppm): 100%
- protectant activity against corn rust in vivo (corn rust; 400 ppm): 100%
- Insecticidal activity against armyworm (%) (armyworm; 10 mg/L): 80%
- Insecticidal activity against armyworm (%) (armyworm; 100 mg/L): 100%
- Insecticidal activity against armyworm (%) (armyworm; 600 mg/L): 100%
- control (test results against armyworm) (armyworm; 100 ppm): 100%
- control (test results against armyworm) (armyworm; 600 ppm): 100%
- Insecticidal activity against carmine spider mite (% ) (carmine spider mite; 2.5 mg/L): 93%
- Insecticidal activity against carmine spider mite (% ) (carmine spider mite; 5 mg/L): 100%
- Insecticidal activity against carmine spider mite (% ) (carmine spider mite; 10 mg/L, contrastive test): 100%
- Insecticidal activity against carmine spider mite (% ) (carmine spider mite; 100 mg/L, contrastive test): 100%
- Insecticidal activity against carmine spider mite (% ) (carmine spider mite; 600 mg/L, contrastive test): 100%
- control against carmine spider mite (carmine spider mite; 5 ppm): 100%
- control against carmine spider mite (carmine spider mite; 10 ppm): 100%
- control against carmine spider mite (carmine spider mite; 100 ppm): 100%
- control against carmine spider mite (carmine spider mite; 600 ppm): 100%
- Insecticidal activity against diamond back moth (%) (Diamond back moth; 10 mg/L): 60%
- Insecticidal activity against diamond back moth (%) (Diamond back moth; 100 mg/L): 100%
- Insecticidal activity against diamond back moth (%) (Diamond back moth; 600 mg/L): 100%
- control (test results against diamond back moth) (Diamond back moth; 100 ppm): 100%
- control (test results against diamond back moth) (Diamond back moth; 600 ppm): 100%
- control effect against wheat powdery mildew (%) (wheat powdery mildew; 6.25 mg/L): 98%
- control effect against wheat powdery mildew (%) (wheat powdery mildew; 25 mg/L): 100%
- control effect against wheat powdery mildew (%) (wheat powdery mildew; 100 mg/L): 100%
- control effect against wheat powdery mildew (%) (wheat powdery mildew; 400 mg/L): 100%
- protectant activity against wheat powdery mildew in vivo (wheat powdery mildew; 25 ppm): 100%
- protectant activity against wheat powdery mildew in vivo (wheat powdery mildew; 100 ppm): 100%
- protectant activity against wheat powdery mildew in vivo (wheat powdery mildew; 400 ppm): 100%
- Insecticidal activity against peach aphid (%) ([1]; 1.25 mg/L): 100%
- Insecticidal activity against peach aphid (%) ([1]; 2.5 mg/L): 100%
- Insecticidal activity against peach aphid (%) ([1]; 5 mg/L): 100%
- Insecticidal activity against peach aphid (%) ([1]; 10 mg/L): 100%
- Insecticidal activity against peach aphid (%) ([1]; 100 mg/L): 100%
- Insecticidal activity against peach aphid (%) ([1]; 600 mg/L): 100%
- control (test results against green peach aphid) ([1]; 2.5 ppm): 100%
- control (test results against green peach aphid) ([1]; 5 ppm): 100%
- control (test results against green peach aphid) ([1]; 10 ppm): 100%
- control (test results against green peach aphid) ([1]; 100 ppm): 100%
- control (test results against green peach aphid) ([1]; 600 ppm): 100%

SMILES: CCc1ncnc(NCCc2ccc(Oc3ccc(Cl)cc3)c(OC)c2)c1Cl [II-1965]
- protectant activity against cucumber downy mildew in vivo (cucumber downy mildew; 400 ppm): 100%
- protectant activity against corn rust in vivo (corn rust; 400 ppm): 100%
- control (test results against armyworm) (armyworm; 600 ppm): 100%
- control against carmine spider mite (carmine spider mite; 100 ppm): 100%
- control against carmine spider mite (carmine spider mite; 600 ppm): 100%
- control (test results against diamond back moth) (Diamond back moth; 600 ppm): 100%
- protectant activity against wheat powdery mildew in vivo (wheat powdery mildew; 400 ppm): 100%
- Insecticidal activity against peach aphid (%) ([1]; 10 mg/L): 100%
- Insecticidal activity against peach aphid (%) ([1]; 100 mg/L): 100%
- Insecticidal activity against peach aphid (%) ([1]; 600 mg/L): 100%
- control (test results against green peach aphid) ([1]; 10 ppm): 100%
- control (test results against green peach aphid) ([1]; 100 ppm): 100%
- control (test results against green peach aphid) ([1]; 600 ppm): 100%

SMILES: Cc1ncnc(NCCc2ccc(Oc3ccccc3)nc2)c1Cl [III-1]
- control effect against cucumber downy mildew (%) (cucumber downy mildew; 12.5 mg/L): 100%
- control effect against cucumber downy mildew (%) (cucumber downy mildew; 25 mg/L): 100%
- control effect against cucumber downy mildew (%) (cucumber downy mildew; 50 mg/L): 100%
- control effect against cucumber downy mildew (%) (cucumber downy mildew; 100 mg/L): 100%
- control effect against cucumber downy mildew (%) (cucumber downy mildew; 400 mg/L): 100%
- protectant activity against cucumber downy mildew in vivo (cucumber downy mildew; 12.5 ppm): 100%
- protectant activity against cucumber downy mildew in vivo (cucumber downy mildew; 25 ppm): 100%
- protectant activity against cucumber downy mildew in vivo (cucumber downy mildew; 50 ppm): 100%
- protectant activity against cucumber downy mildew in vivo (cucumber downy mildew; 100 ppm): 100%
- protectant activity against cucumber downy mildew in vivo (cucumber downy mildew; 400 ppm): 100%
- protectant activity against corn rust in vivo (corn rust; 400 ppm): 100%
- control (test results against armyworm) (armyworm; 600 ppm): 100%
- control against carmine spider mite (carmine spider mite; 600 ppm): 100%
- control (test results against diamond back moth) (Diamond back moth; 600 ppm): 100%
- control effect against wheat powdery mildew (%) (wheat powdery mildew; 6.25 mg/L): 98%
- control effect against wheat powdery mildew (%) (wheat powdery mildew; 25 mg/L): 98%
- control effect against wheat powdery mildew (%) (wheat powdery mildew; 100 mg/L): 98%
- control effect against wheat powdery mildew (%) (wheat powdery mildew; 400 mg/L): 100%
- protectant activity against wheat powdery mildew in vivo (wheat powdery mildew; 400 ppm): 100%
- control (test results against green peach aphid) ([1]; 600 ppm): 100%

SMILES: Cc1ccc(Oc2ccc(CCNc3ncnc(C)c3Cl)cn2)cc1 [III-16]
- control effect against cucumber downy mildew (%) (cucumber downy mildew; 6.25 mg/L): 100%
- control effect against cucumber downy mildew (%) (cucumber downy mildew; 12.5 mg/L): 100%
- control effect against cucumber downy mildew (%) (cucumber downy mildew; 25 mg/L): 100%
- control effect against cucumber downy mildew (%) (cucumber downy mildew; 50 mg/L): 100%
- control effect against cucumber downy mildew (%) (cucumber downy mildew; 100 mg/L): 100%
- control effect against cucumber downy mildew (%) (cucumber downy mildew; 400 mg/L): 100%
- protectant activity against cucumber downy mildew in vivo (cucumber downy mildew; 6.25 ppm): 100%
- protectant activity against cucumber downy mildew in vivo (cucumber downy mildew; 12.5 ppm): 100%
- protectant activity against cucumber downy mildew in vivo (cucumber downy mildew; 25 ppm): 100%
- protectant activity against cucumber downy mildew in vivo (cucumber downy mildew; 50 ppm): 100%
- protectant activity against cucumber downy mildew in vivo (cucumber downy mildew; 100 ppm): 100%
- protectant activity against cucumber downy mildew in vivo (cucumber downy mildew; 400 ppm): 100%
- protectant activity against corn rust in vivo (corn rust; 400 ppm): 100%
- control (test results against armyworm) (armyworm; 600 ppm): 100%
- Insecticidal activity against carmine spider mite (% ) (carmine spider mite; 100 mg/L, contrastive test): 100%
- Insecticidal activity against carmine spider mite (% ) (carmine spider mite; 600 mg/L, contrastive test): 100%
- control against carmine spider mite (carmine spider mite; 100 ppm): 100%
- control against carmine spider mite (carmine spider mite; 600 ppm): 100%
- control (test results against diamond back moth) (Diamond back moth; 600 ppm): 100%
- protectant activity against wheat powdery mildew in vivo (wheat powdery mildew; 400 ppm): 100%
- control (test results against green peach aphid) ([1]; 100 ppm): 100%
- control (test results against green peach aphid) ([1]; 600 ppm): 100%

SMILES: COc1ccc(Oc2ccc(CCNc3ncnc(C)c3Cl)cn2)cc1 [III-19]
- control effect against cucumber downy mildew (%) (cucumber downy mildew; 6.25 mg/L): 95%
- control effect against cucumber downy mildew (%) (cucumber downy mildew; 12.5 mg/L): 98%
- control effect against cucumber downy mildew (%) (cucumber downy mildew; 25 mg/L): 100%
- control effect against cucumber downy mildew (%) (cucumber downy mildew; 50 mg/L): 100%
- control effect against cucumber downy mildew (%) (cucumber downy mildew; 100 mg/L): 100%
- control effect against cucumber downy mildew (%) (cucumber downy mildew; 400 mg/L): 100%
- protectant activity against cucumber downy mildew in vivo (cucumber downy mildew; 25 ppm): 100%
- protectant activity against cucumber downy mildew in vivo (cucumber downy mildew; 50 ppm): 100%
- protectant activity against cucumber downy mildew in vivo (cucumber downy mildew; 100 ppm): 100%
- protectant activity against cucumber downy mildew in vivo (cucumber downy mildew; 400 ppm): 100%
- protectant activity against corn rust in vivo (corn rust; 400 ppm): 100%
- control (test results against armyworm) (armyworm; 600 ppm): 100%
- control against carmine spider mite (carmine spider mite; 600 ppm): 100%
- control (test results against diamond back moth) (Diamond back moth; 600 ppm): 100%
- protectant activity against wheat powdery mildew in vivo (wheat powdery mildew; 400 ppm): 100%
- control (test results against green peach aphid) ([1]; 600 ppm): 100%
